According to patent US20260258048A1, “LACTAM-CONTAINING IMIDAZOPYRIDAZINE IL-17 INHIBITOR COMPOUNDS” (Janssen Pharmaceutica NV, priority 2023, published 2026):
pIC50: −log10 of the molar value.

Tested on: IL-17A-induced G-CSF production in human normal keratinocyte (NHK)
Assay: NHK assay: IL-17A-induced G-CSF production in normal human keratinocytes
Format: cell-based
Conditions: Homo sapiens, Keratinocyte, 24 h, IL-17A 5 ng/mL, class of the average IC50 where tested more than once
Description: IL-17A acts directly on keratinocytes through binding to dimeric receptor IL-17RA/RC and drives the production of a number of inflammatory mediators known to be elevated in psoriasis lesional tissue. IL-17A small molecule inhibitors that block the IL-17A to interact with IL-17R would inhibit the IL-17A signaling in its targeted cells such as keratinocytes. The compound functional activity is evaluated for its impact on IL-17A-induced G-CSF production in human normal keratinocyte (NHK).
Adult normal human keratinocytes are cultured in keratinocyte growth medium (Lonza) in a flask till reaching ~90% confluence, then cells are transferred to a 384-well plate at density of 3000-4000 cell/well. Recombinant human IL-17A (Gibco PHC9174) is pre-incubated with titrated compound or DMSO for 1 h at rt then added to the cell culture plate. The final concentration of IL-17A is 5 ng/mL and DMSO is 0.2%, in the culture containing 5% FBS. Cells are cultured/treated for 24 h at 37° C. Supernatants are collected and G-CSF production is measured through HTRF technology using Human G-CSF Kit (CisBio). G-CSF concentration was extrapolated from the standard curve and IC50 is determined using GraphPad Prism. Cell viability is also evaluated using CellTiter-Glo kit (Promega) and effect of compound on cell viability is compared to DMSO control.

| SMILES | pIC50 |
| --- | --- |
| O=C(N[C@H](c1cn2ncc(C[C@@H]3C(=O)NCC[C@H]3C(F)(F)F)cc2n1)C1CCC(F)(F)CC1)c1nonc1C1CC1 (relative stereo) [Example 3, 4-Cyclopropyl-N—[(S)-(4,4-difluorocyclohexyl)-[7-[[(3S*,4R*)-2-oxo-4-(trifluoromethyl)-3-piperidyl]methyl]imidazo[1,2-b]pyridazin-2-yl]methyl]-1,2,5-oxadiazole-3-carboxamide] | < 5.40 |
| O=C(N[C@H](c1cn2ncc(C[C@H]3C(=O)NCC[C@@H]3C(F)(F)F)cc2n1)C1CCC(F)(F)CC1)c1nonc1C1CC1 (relative stereo) [Example 4, 4-Cyclopropyl-N—[(S)-(4,4-difluorocyclohexyl)-[7-[[(3R*,4S*)-2-oxo-4-(trifluoromethyl)-3-piperidyl]methyl]imidazo[1,2-b]pyridazin-2-yl]methyl]-1,2,5-oxadiazole-3-carboxamide] | 5.40 to 6.40 |
| O=C(N[C@H](c1cn2ncc(C[C@H]3CC[C@H](C(F)(F)F)NC3=O)cc2n1)C1CCC(F)(F)CC1)c1nonc1C1CC1 (relative stereo) [Example 29, 4-Cyclopropyl-N—((S)-(4,4-difluorocyclohexyl)(7-(((3R*,6R*)-2-oxo-6-(trifluoromethyl)piperidin-3-yl)methyl)imidazo[1,2-b]pyridazin-2-yl)methyl)-1,2,5-oxadiazole-3-carboxamide] | 5.40 to 6.40 |
| O=C(N[C@H](c1cn2ncc(C[C@H]3CC[C@@H](C(F)(F)F)NC3=O)cc2n1)C1CCC(F)(F)CC1)c1nonc1C1CC1 (relative stereo) [Example 30, 4-Cyclopropyl-N—((S)-(4,4-difluorocyclohexyl)(7-(((3R*,6S*)-2-oxo-6-(trifluoromethyl)piperidin-3-yl)methyl)imidazo[1,2-b]pyridazin-2-yl)methyl)-1,2,5-oxadiazole-3-carboxamide] | < 5.40 |
| O=C(N[C@H](c1cn2ncc(C[C@@H]3CC[C@H](C(F)(F)F)NC3=O)cc2n1)C1CCC(F)(F)CC1)c1nonc1C1CC1 (relative stereo) [Example 31, 4-Cyclopropyl-N—((S)-(4,4-difluorocyclohexyl)(7-(((3S*,6R*)-2-oxo-6-(trifluoromethyl)piperidin-3-yl)methyl)imidazo[1,2-b]pyridazin-2-yl)methyl)-1,2,5-oxadiazole-3-carboxamide] | > 6.40 |
| O=C(N[C@H](c1cn2ncc(C[C@@H]3CC[C@@H](C(F)(F)F)NC3=O)cc2n1)C1CCC(F)(F)CC1)c1nonc1C1CC1 (relative stereo) [Example 32, 4-Cyclopropyl-N—((S)-(4,4-difluorocyclohexyl)(7-(((3S*,6S*)-2-oxo-6-(trifluoromethyl)piperidin-3-yl)methyl)imidazo[1,2-b]pyridazin-2-yl)methyl)-1,2,5-oxadiazole-3-carboxamide] | < 5.40 |
| O=C(N[C@H](c1cn2ncc(C[C@H]3C[C@@H](C(F)(F)F)CNC3=O)cc2n1)C1CCC(F)(F)CC1)c1nonc1C1CC1 (relative stereo) [Example 33, 4-Cyclopropyl-N—((S)-(4,4-difluorocyclohexyl)(7-(((3R*,5R*)-2-oxo-5-(trifluoromethyl)piperidin-3-yl)methyl)imidazo[1,2-b]pyridazin-2-yl)methyl)-1,2,5-oxadiazole-3-carboxamide] | 5.40 to 6.40 |
| O=C(N[C@H](c1cn2ncc(C[C@H]3C[C@H](C(F)(F)F)CNC3=O)cc2n1)C1CCC(F)(F)CC1)c1nonc1C1CC1 (relative stereo) [Example 34, 4-Cyclopropyl-N—((S)-(4,4-difluorocyclohexyl)(7-(((3R*,5S*)-2-oxo-5-(trifluoromethyl)piperidin-3-yl)methyl)imidazo[1,2-b]pyridazin-2-yl)methyl)-1,2,5-oxadiazole-3-carboxamide] | < 5.40 |
| CC(C)(CC[C@H](NC(=O)c1nonc1C1CC1)c1cn2ncc([C@@H](O)[C@H]3C[C@@H](C(F)(F)F)NC3=O)cc2n1)C(F)(F)F (relative stereo) [Example 66, 4-Cyclopropyl-N—((S)-5,5,5-trifluoro-1-(7-((S*)-hydroxy((3R*,5S)-2-oxo-5-(trifluoromethyl)pyrrolidin-3-yl)methyl)imidazo[1,2-b]pyridazin-2-yl)-4,4-dimethylpentyl)-1,2,5-oxadiazole-3-carboxamide] | 5.40 to 6.40 |
| CC(C)(CC[C@H](NC(=O)c1nonc1C1CC1)c1cn2ncc([C@@H](O)[C@@H]3C[C@@H](C(F)(F)F)NC3=O)cc2n1)C(F)(F)F (relative stereo) [Example 67, 4-Cyclopropyl-N—((S)-5,5,5-trifluoro-1-(7-((S*)-hydroxy((3S*,5S)-2-oxo-5-(trifluoromethyl)pyrrolidin-3-yl)methyl)imidazo[1,2-b]pyridazin-2-yl)-4,4-dimethylpentyl)-1,2,5-oxadiazole-3-carboxamide] | < 5.40 |
| C[C@@H]1C[C@@H](Cc2cnn3cc([C@@H](NC(=O)c4nonc4C4CC4)C4CCC(F)(F)CC4)nc3c2)C(=O)N1 (relative stereo) [Example 84, Cyclopropyl-N—((S)-(4,4-difluorocyclohexyl)(7-(((3R*,5R*)-5-methyl-2-oxopyrrolidin-3-yl)methyl)imidazo[1,2-b]pyridazin-2-yl)methyl)-1,2,5-oxadiazole-3-carboxamide] | < 5.40 |
| C[C@H]1CNC(=O)[C@@H]1Cc1cnn2cc([C@@H](NC(=O)c3nonc3C3CC3)C3CCC(F)(F)CC3)nc2c1 (relative stereo) [Example 87, 4-Cyclopropyl-N—[(S)-(4,4-difluorocyclohexyl)-[7-[[(3R*,4R*)-4-methyl-2-oxo-pyrrolidin-3-yl]methyl]imidazo[1,2-b]pyridazin-2-yl]methyl]-1,2,5-oxadiazole-3-carboxamide] | < 5.40 |
| CC[C@@H]1C[C@@H](Cc2cnn3cc([C@@H](NC(=O)c4nonc4C4CC4)C4CCC(F)(F)CC4)nc3c2)C(=O)N1 (relative stereo) [Example 90, 4-Cyclopropyl-N—[(S)-(4,4-difluorocyclohexyl)-[7-[[(3R*,5R*)-5-ethyl-2-oxo-pyrrolidin-3-yl]methyl]imidazo[1,2-b]pyridazin-2-yl]methyl]-1,2,5-oxadiazole-3-carboxamide] | > 6.40 |
| O=C(N[C@H](c1cn2ncc(CC3CC(C(F)(F)F)CNC3=O)cc2n1)C1CCC(F)(F)CC1)c1nonc1C1CC1 (single isomer, unassigned) [Example 35, 4-Cyclopropyl-N-((1S)-(4,4-difluorocyclohexyl)(7-(((3S*)-2-oxo-5-(trifluoromethyl)piperidin-3-yl)methyl)imidazo[1,2-b]pyridazin-2-yl)methyl)-1,2,5-oxadiazole-3-carboxamide] | 5.40 to 6.40 |
| Cc1nonc1C(=O)N[C@@H](CCC(C)(C)C(F)(F)F)c1cn2ncc(C[C@H]3C[C@@H](C(F)(F)F)NC3=O)cc2n1 (single isomer, unassigned) [Example 37] | > 6.40 |
| C[C@@]1(C(F)(F)F)CC(Cc2cnn3cc([C@@H](NC(=O)c4nonc4C4CC4)C4CCC(F)(F)CC4)nc3c2)C(=O)N1 (single isomer, unassigned) [Example 55, 4-Cyclopropyl-N—((S)-(4,4-difluorocyclohexyl(7-(((3S*,5S)-5-methyl-2-oxo-5-(trifluoromethyl)pyrrolidine-3-yl)methyl)imidazo[1,2-b]pyrrolidin-2-yl)methyl)-1,2,5-oxadiazole-3-carboxamide] | > 6.40 |
| CC(C)(CC[C@H](NC(=O)c1nonc1C1CC1)c1cn2ncc(CC3C[C@@](C)(C(F)(F)F)NC3=O)cc2n1)C(F)(F)F (single isomer, unassigned) [Example 57, 4-Cyclopropyl-N—((S)-5,5,5-trifluoro-4,4-dimethyl-1-(7-(((3S*,5S)-5-methyl-2-oxo-5-(trifluoromethyl)pyrrolidin-3-yl)methyl)imidazo[1,2-b]pyridazin-2-yl)pentyl)-1,2,5-oxadiazole-3-carboxamide] | > 6.40 |
| COC[C@]1(Cc2cnn3cc([C@@H](NC(=O)c4nonc4C4CC4)C4CCC(F)(F)CC4)nc3c2)C[C@@H](C(F)(F)F)NC1=O (single isomer, unassigned) [Example 99] | > 6.40 |
| Cc1nonc1C(=O)N[C@H](c1cn2ncc([C@@](C)(O)[C@@]3(C)C[C@@H](C(F)(F)F)NC3=O)cc2n1)C1CCC(F)(F)CC1 [Example 106, N—((S)-(4,4-Difluorocyclohexyl)(7-((R)-1-hydroxy-1-((3R,5S)-3-methyl-2-oxo-5-(trifluoromethyl)pyrrolidin-3-yl)ethyl)imidazo[1,2-b]pyridazin-2-yl)methyl)-4-methyl-1,2,5-oxadiazole-3-carboxamide] | > 6.40 |
